In US20250282795A1, “EGFR Inhibitors in cancer treatment” (Celyn Therapeutics, Inc., priority 2022, published 2025):

Tests used:
Ba/F3 (A767_dupASV) = assay: Cellular growth inhibition assay (CellTiter-Glo), Ba/F3 (A767_dupASV); type: cell-based; settings: Mus musculus, BaF3, 72 h; 3 days of incubation; read-out: Ba/F3 (A767_dup ASV) CC50
In short: (§1)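 Ba/F3 cells expressing the EGFR variants were seeded at 4000 cells/well in RPMI with FBS, with 10 ng/ml rhEGF added for the wild-type line, and treated with compound at 0.2% final DMSO. Viability was read by CellTiter-Glo luminescence after 3 days.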

Ba/F3 (D770_N771insSVD) = assay: Cellular growth inhibition assay (CellTiter-Glo), Ba/F3 (D770_N771insSVD); type: cell-based; settings: Mus musculus, BaF3, 72 h; 3 days of incubation; read-out: Ba/F3 (D770_N771 insSVD) CC50
In short: as §1

EGFR (WT) = EGFR (WT) (Homo sapiens (Human), UniProt P00533); assay: Potency of EGFR enzymatic activity inhibition (WT) (ADP-Glo luminescence); type: biochemical; settings: recombinant EGFR (WT) 4 nM, Poly(Glu, Tyr) substrate, ATP, 1 h at rt
Chain of EGFR (WT) (P00533 25-1210): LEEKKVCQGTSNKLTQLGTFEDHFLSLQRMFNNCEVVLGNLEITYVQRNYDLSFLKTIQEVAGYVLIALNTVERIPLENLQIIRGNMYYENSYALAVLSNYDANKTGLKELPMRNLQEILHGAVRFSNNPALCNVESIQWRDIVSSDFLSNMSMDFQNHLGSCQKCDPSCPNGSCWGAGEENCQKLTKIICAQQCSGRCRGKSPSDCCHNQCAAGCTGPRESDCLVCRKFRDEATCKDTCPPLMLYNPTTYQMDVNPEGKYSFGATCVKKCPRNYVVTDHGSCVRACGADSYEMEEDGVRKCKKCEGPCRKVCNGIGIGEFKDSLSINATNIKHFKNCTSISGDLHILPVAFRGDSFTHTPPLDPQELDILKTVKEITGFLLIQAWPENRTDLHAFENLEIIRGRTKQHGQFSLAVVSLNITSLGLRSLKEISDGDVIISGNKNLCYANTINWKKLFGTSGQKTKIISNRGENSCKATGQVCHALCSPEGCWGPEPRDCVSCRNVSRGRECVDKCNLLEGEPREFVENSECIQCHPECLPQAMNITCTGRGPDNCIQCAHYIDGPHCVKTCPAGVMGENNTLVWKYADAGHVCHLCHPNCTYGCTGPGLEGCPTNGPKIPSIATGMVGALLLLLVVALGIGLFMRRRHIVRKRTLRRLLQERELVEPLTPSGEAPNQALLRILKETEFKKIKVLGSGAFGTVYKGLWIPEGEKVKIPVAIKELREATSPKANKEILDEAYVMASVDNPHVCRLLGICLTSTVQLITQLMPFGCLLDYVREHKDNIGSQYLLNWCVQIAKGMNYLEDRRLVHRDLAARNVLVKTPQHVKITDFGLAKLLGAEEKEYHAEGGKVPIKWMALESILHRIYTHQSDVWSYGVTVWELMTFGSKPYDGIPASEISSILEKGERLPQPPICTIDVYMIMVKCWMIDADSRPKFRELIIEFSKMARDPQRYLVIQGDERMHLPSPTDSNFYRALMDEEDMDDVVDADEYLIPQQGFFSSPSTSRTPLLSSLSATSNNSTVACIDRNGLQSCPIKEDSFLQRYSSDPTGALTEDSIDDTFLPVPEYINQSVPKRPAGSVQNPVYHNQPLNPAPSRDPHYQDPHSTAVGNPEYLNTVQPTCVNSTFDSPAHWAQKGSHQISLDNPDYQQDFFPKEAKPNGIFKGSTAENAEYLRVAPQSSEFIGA
Description: Example D. Primary Assay Used to Determine Potency of EGFR enzymatic activity Inhibition (WT)
Compound activity was determined using recombinant EGFR protein (SignalChem, #E10-112G-10) and Poly(Glu, Tyr) substrate (Sigma-Aldrich, #P0275) in an in vitro enzymatic reaction. The enzymatic assay used to determine activity was a Luminescence assay using a Microplate Reader ClarioStar Plus. The enzymatic reaction was carried out in assay buffer (40 mM TRIS-HCl pH 7.4-7.6, 20 mM MgCl2, 2.5 mM MnCl2, 0.05 mM DTT, 0.1 mg/ml BSA). The compounds were dispensed on a 384 well Diamond Well Plate (Axigen, Cat #P-384-120SQ-C—S) using the Biomek FX liquid handling system at 80× solutions of compounds in DMSO. 2× Protein-Substrate mix (final concentration 4 nM of EGFR and 50 ng/μl of Poly(Glu, Tyr)) was prepared in 1× Assay buffer and 4 μl of mixture per well was added into 384w white Reaction plate with NBS (Coming, Cat #4513). 4 μl of Poly(Glu, Tyr) substrate w/o EGFR in 1× buffer was used for negative control. Plates were centrifuged for 1 min at 200 g. Next step the Compounds were added to Reaction plate using Biomek station via following steps: 1 μl of 80× compounds (in DMSO) were mixed thoroughly with 39 μl of 2× 10 μM ATP in Assay Buffer, then 4 μl of this mixture was added to Reaction plate with 4 μl of Protein-Substrate mix. Plates were centrifuged for 1 min at 200 g and incubated for 1 h at rt. Next 4 μL of ADP-Glo reagent (Promega, ADP-Glo™ Kinase Assay, Cat #V9102) per well was added. Plates were incubated for 30 min at rt. Then 8 μL of Kinase detection reagent (Promega, ADP-Glo™ Kinase Assay, Cat #V9102) per well was added and the Luminescence was measured using Microplate Reader. The % inhibition was then used to calculate the EC50 values. The results for certain compounds are presented in the Table D. The values of EC50 shown as a letters A-E, where: A<0.001 μM; 0.001 μM<B<0.005 μM; 0.005 μM<C<

Ba/F3 (L858R + T790M) = assay: Cellular growth inhibition assay (CellTiter-Glo), Ba/F3 (L858R+T790M); type: cell-based; settings: Mus musculus, BaF3, 72 h; 3 days of incubation
In short: as §1

Ba/F3 (H773_V774insSVD) = assay: Cellular growth inhibition assay (CellTiter-Glo), Ba/F3 (H773_V774insSVD); type: cell-based; settings: Mus musculus, BaF3, 72 h; 3 days of incubation; read-out: Ba/F3 (H773_V774 insSVD) CC50
EGFR (D770_N771insNPG) = EGFR (D770_N771insNPG) (Homo sapiens (Human), UniProt P00533, INS770NPG); assay: Potency of EGFR (D770_N771insNPG) enzymatic activity inhibition (ADP-Glo luminescence); type: biochemical; settings: recombinant EGFR (D770_N771insNPG) 1.5 nM, Poly(Glu, Tyr) substrate, ATP, 1 h at rt
Chain of EGFR (D770_N771insNPG) (P00533 other isoform, or with tags, fused parts or gaps del 1-694/ins NPG behind 770 limits assumed): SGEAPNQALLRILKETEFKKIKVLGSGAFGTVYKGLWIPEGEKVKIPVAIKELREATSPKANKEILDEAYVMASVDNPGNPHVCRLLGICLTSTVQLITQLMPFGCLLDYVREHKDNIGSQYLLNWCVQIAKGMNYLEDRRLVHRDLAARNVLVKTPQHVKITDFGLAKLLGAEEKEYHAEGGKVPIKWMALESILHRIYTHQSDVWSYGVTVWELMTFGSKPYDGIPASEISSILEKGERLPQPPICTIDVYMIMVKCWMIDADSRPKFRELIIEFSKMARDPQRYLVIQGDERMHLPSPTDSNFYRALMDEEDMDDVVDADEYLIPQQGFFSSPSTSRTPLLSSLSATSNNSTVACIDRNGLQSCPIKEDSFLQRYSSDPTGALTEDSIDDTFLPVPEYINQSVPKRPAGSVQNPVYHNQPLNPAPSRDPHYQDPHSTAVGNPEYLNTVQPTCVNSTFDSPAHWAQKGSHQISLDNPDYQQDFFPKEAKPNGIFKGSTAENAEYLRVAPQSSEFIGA
Description: Example B. Primary Assay Used to Determine Potency of EGFR (D770_N771insNPG) Enzymatic Activity Inhibition
Compounds activity was determined using recombinant EGFR (D770 N771insNPG) protein (SignalChem, #E10-132GG-10) and Poly(Glu, Tyr) substrate (Sigma-Aldrich, #P0275) in an in vitro enzymatic reaction. The enzymatic assay used to determine activity was a Luminescence assay using a Microplate Reader ClarioStar Plus. The enzymatic reaction was carried out in assay buffer (40 mM TRIS-HCl pH 7.4-7.6, 20 mM MgCl2, 2.5 mM MnCl2, 0.05 mM DTT, 0.1 mg/ml BSA). The compounds were dispensed on a 384 well Diamond Well Plate (Axigen, Cat #P-384-120SQ-C—S) using the Biomek FX liquid handling system at 80× solutions of compounds in DMSO. 2× Protein-Substrate mix (final concentration 1.5 nM of EGFR (D770_N771insNPG) and 50 ng/μl of Poly(Glu, Tyr)) was prepared in 1× Assay buffer and 4 µl of mixture per well was added into 384w white Reaction plate with NBS (Coming, Cat #4513). 4 μl of Poly(Glu, Tyr) substrate w/o EGFR in 1× buffer was used for negative control. Plates were centrifuged for 1 min at 200 g. Next step the Compounds were added to Reaction plate using Biomek station via following steps: 1 μl of 80× compounds (in DMSO) were mixed thoroughly with 39 μl of 2× 10 μM ATP in Assay Buffer, then 4 μl of this mixture was added to Reaction plate with 4 μl of Protein-Substrate mix. Plates were centrifuged for 1 min at 200 g and incubated for 1 h at rt. Next 4 μL of ADP-Glo reagent (Promega, ADP-Glo™ Kinase Assay, Cat #V9102) per well was added. Plates were incubated for 30 min at rt. Then 8 μL of Kinase detection reagent (Promega, ADP-Glo™ Kinase Assay, Cat #V9102) per well was added and the Luminescence was measured using Microplate Reader. The % inhibition was then used to calculate the EC50 values. The values of EC50 shown as a letters A-E, where: A<0.001 μM; 0.001 μM<B<0.005 μM; 0.005 μM<C<0.01 μM; 0.01<D<0.05 μM; E>0.05.

Ba/F3 (EGFRwt) = assay: Cellular growth inhibition assay (CellTiter-Glo), Ba/F3 (EGFRwt); type: cell-based; settings: Mus musculus, BaF3, 72 h; Ba/F3 (Wild type) with 10 ng/ml rhEGF, 3 days of incubation
Description: Example E. Cellular Growth Inhibition Assay
Ba/F3(Empty vector) (Signosis), Ba/F3(Wild type) (Signosis), Ba/F3(L^858R+T790M) (Signosis), Ba/F3(A767_dupASV) (Signosis), Ba/F3(D770_N771insSVD) (Signosis), Ba/F3(H773_V774insNPH) (Signosis) were seeded at a density of 4000 cells per well in a CellBIND® 384-well Flat Clear Bottom Black Polystyrene Microplates (Coming, USA, Cat #3770) in 45 μl total volume of RPMI (PanEco, Cat #C330, Russia) with […] (HyClone, Cat #SV30160.03) and with 10 ng/ml rmIL-3 (RD systems, USA, Cat #403-ML-025) (for BaBF3(Empty vector)) and with 10 ng/ml rhEGF (ThermoFisher, USA, Cat #PHG0311L) (for BaCF3(Wild type)). 500× compounds solutions in DMSO (Sigma Cat #D2650) were prepared into Cmpnds plate (DiamondWell Plate, Axigen, Cat #P-384-120SQ-C—S) and DMSO only control was included. 1.l of 500× compounds (Cmpnds plate) was added to 49 µl of culture medium into Dilution plate (Diamond Well Plate, Axigen, Cat #P-384-120SQ-C—S), mixed and then 5 μl of 10× compounds solutions were transferred to cells followed by centrifugation at 100 g for 1 min. Final DMSO concentration was 0.2% o. After 3 days of incubation 10.l of CellTiter-Glo (Promega, CAT #G7572) were added to the cells, plate was centrifuged at 100 g for 1 min and luminescence signal was measured using Microplate Reader (CLARIOStar).

[1] = Cellular growth inhibition assay (CellTiter-Glo), Ba/F3 (Empty vector); type: cell-based; settings: mouse, Ba/F3 cells with empty vector; Ba/F3 (Empty vector) with 10 ng/ml rmIL-3, 3 days of incubation
In short: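 Ba/F3 cells carrying an empty vector were plated in 384-well black clear-bottom plates at 4000 cells per well in 45 μl RPMI containing FBS and 10 ng/ml rmIL-3. Compounds diluted from DMSO stocks were added as 5 μl of 10× solution, giving 0.2% DMSO. After 3 days, CellTiter-Glo was added and luminescence measured.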

Row | Structure (SMILES) | CC50 (Ba/F3 (A767_dupASV)) [nM] | CC50 (Ba/F3 (D770_N771insSVD)) [nM] | EC50 (EGFR (WT)) [nM] | CC50 (Ba/F3 (L858R + T790M)) [nM] | CC50 (Ba/F3 (H773_V774insSVD)) [nM] | EC50 (EGFR (D770_N771insNPG)) [nM] | CC50 (Ba/F3 (EGFRwt)) [nM] | CC50 at 3 days [1] [nM]
1 | COc1c(F)cccc1Nc1c2[nH]c3c1C(=O)NCC3C/C=C/COCCOc1cnccc1-2 (stereo not shown) [Compound 99, (13E)-23-[(3-Fluoro-2-methoxyphenyl)amino]-8,11-dioxa-5,18,22-tniazatetracyclo[18.2.1.0^2,7.0^16′2]tricosa-1(23),2,4,6,13,20-hexaen-19-one] | 1 to 10 | 10 to 100 | 1 to 5 | 100 to 1000 | 100 to 1000 | 1 to 5 | 10 to 100 | > 10000
2 | COc1c(F)cccc1Nc1c2[nH]c3c1C(=O)NCC3CCCCOCCOc1cnccc1-2 (stereo not shown) [Compound 100, 23-[(3-Fluoro-2-methoxyphenyl)amino]-8,11-dioxa-5,18,22-triazatetracyclo[18.2.1.0^2,7.0^16,21]tricosa-1(23),2,4,6,20-pentaen-19-one] | 1 to 10 | 10 to 100 | ≤ 1 | 100 to 1000 | 10 to 100 | 1 to 5 | 10 to 100 | > 10000
3 | COc1c(F)cccc1Nc1c2[nH]c3c1C(=O)NCC3C/C=C\COCCOc1cnccc1-2 (stereo not shown) [Compound 104, (13Z)-23-[(3-fluoro-2-methoxyphenyl)amino]-8,11-dioxa-5,18,22-triazatetracyclo[18.2.10^2,7.0^16,21]tricosa-1(23),2,4,6,13,20-hexaen-19-one] | 0.1 to 1 | 10 to 100 | 1 to 5 | 100 to 1000 | 100 to 1000 | ≤ 1 | 100 to 1000 | > 10000
4 | COc1c(F)cccc1Nc1c2[nH]c3c1C(=O)NC[C@H]3CCCCOCCOc1cnccc1-2 [Compound 114, (16R)-23-[(3-Fluoro-2-methoxyphenyl)amino]-8,11-dioxa-5,18,22-triazatetracyclo[18.2.1.0^2,7.0^16,21]tricosa-1(23),2,4,6,20-pentaen-19-one] | 0.1 to 1 | 10 to 100 | 1 to 5 | 100 to 1000 | 100 to 1000 | 1 to 5 | 100 to 1000 | > 10000
5 | COc1c(F)cccc1Nc1c2[nH]c3c1C(=O)NC[C@@H]3CCCCOCCOc1cnccc1-2 [Compound 115] | 0.1 to 1 | 10 to 100 | 1 to 5 | 100 to 1000 | 10 to 100 | 1 to 5 | 100 to 1000 | > 10000
6 | COc1c(F)cccc1Nc1c2[nH]c3c1C(=O)NCC3CC(=O)N1CCN(CCOCCOc3cnccc3-2)CC1 (stereo not shown) [Compound 153, 29-(3-Fluoro-2-methoxyanilino)-18,21-dioxa-1,6,10,15,24-pentaazapentacyclo[22.2.2.1^8,110^4,9.0^12,17]nonacosa-8,11(29),12(17),13,15-pentaene-2,7-dione] | > 10000 | > 10000 |  | > 10000 | > 10000 |  | > 10000 | > 10000
7 | COc1c(F)cccc1Nc1c2[nH]c3c1C(=O)NC[C@@H]3CCCN1CCO[C@H](COc3cnccc3-2)C1 [Compound 157, (7S)-21-[(3-Fluoro-2-methoxyphenyl)amino]-6,7,9,10,12,13,14,14a,15,16-decahydro-7,11-methano-18,20-methenodipyrido[3,4-k:4′,3′-o][1,4,7,13]dioxadiazacyclohexadecin-17(19H)-one] | > 10000 | > 10000 |  | > 10000 | > 10000 |  | > 10000 | > 10000
